Holding throughout (assay): Cysteine liganding, probe competition
What all share (type): binding

The target of assay [1] is T1, HUWE1 E3 ubiquitin-protein ligase HUWE1 (Homo sapiens, UniProt Q7Z6Z7).
T1 construct: Cells were resuspended in cold PBS on ice and sonicated with a probe sonicator to achieve lysis; endogenous in cells
An outline of the steps:
(§1)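 Probe competition in native proteome: 5 mg/ml lysate, compound 1 hr 25° C, then desthiobiotin iodoacetamide (10 mM stock) 1 hr 25° C; acetone ppt, urea/DTT reduction, iodoacetamide alkylation, trypsin, streptavidin pull-down.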

Assay [2] concerns the target T2, DIP2A Disco-interacting protein 2 homolog A (Homo sapiens, UniProt Q14689).
T2 construct: 200 μL of lysate containing 5 mg/ml proteome was treated with 2 μL of 100× compound stock; endogenous in cells
The settings on record: for Liganded: DIP2A Res# 6, uniprot Q14689. An outline of the steps: as §1

Assay [3] deals with T3, HERC1 Probable E3 ubiquitin-protein ligase HERC1 (Homo sapiens, UniProt Q15751).
T3 construct: Cells were resuspended in cold PBS on ice and sonicated with a probe sonicator to achieve lysis; endogenous in cells
Summed up:
as §1

Assay [4] concerns the target T4, FASTKD5 FAST kinase domain-containing protein 5 (Homo sapiens, UniProt Q7L8L6).
T4 construct: 200 μL of lysate containing 5 mg/ml proteome was treated with 2 μL of 100× compound stock; endogenous in cells
T4 sequence (Q7L8L6 28-764): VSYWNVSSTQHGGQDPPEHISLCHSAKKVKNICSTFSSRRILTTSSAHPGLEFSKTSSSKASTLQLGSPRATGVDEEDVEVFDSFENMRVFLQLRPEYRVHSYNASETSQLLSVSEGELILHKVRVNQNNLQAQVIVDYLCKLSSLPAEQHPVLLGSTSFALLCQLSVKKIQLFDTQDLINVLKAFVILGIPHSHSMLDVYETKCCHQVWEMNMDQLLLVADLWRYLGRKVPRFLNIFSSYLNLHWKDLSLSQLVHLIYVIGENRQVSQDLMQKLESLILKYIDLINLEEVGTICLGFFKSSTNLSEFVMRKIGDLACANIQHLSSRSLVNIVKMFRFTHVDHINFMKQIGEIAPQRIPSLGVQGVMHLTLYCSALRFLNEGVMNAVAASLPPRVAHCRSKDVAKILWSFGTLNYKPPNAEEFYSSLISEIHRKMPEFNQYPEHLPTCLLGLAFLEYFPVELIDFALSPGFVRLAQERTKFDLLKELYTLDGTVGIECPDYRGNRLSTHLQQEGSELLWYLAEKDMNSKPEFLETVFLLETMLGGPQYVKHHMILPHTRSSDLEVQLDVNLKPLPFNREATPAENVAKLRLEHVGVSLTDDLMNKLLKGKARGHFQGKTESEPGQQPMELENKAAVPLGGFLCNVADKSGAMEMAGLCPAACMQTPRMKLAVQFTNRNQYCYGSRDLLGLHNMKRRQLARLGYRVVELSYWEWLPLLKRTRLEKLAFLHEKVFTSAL
An outline of the steps: as §1

Consider 2 compounds from patent US20200239530A1, “COMPOUNDS AND METHODS OF MODULATING PROTEIN DEGRADATION” (Vividion Therapeutics, Inc., priority 2017, published 2020).

T2 sequence (Q14689 whole entry): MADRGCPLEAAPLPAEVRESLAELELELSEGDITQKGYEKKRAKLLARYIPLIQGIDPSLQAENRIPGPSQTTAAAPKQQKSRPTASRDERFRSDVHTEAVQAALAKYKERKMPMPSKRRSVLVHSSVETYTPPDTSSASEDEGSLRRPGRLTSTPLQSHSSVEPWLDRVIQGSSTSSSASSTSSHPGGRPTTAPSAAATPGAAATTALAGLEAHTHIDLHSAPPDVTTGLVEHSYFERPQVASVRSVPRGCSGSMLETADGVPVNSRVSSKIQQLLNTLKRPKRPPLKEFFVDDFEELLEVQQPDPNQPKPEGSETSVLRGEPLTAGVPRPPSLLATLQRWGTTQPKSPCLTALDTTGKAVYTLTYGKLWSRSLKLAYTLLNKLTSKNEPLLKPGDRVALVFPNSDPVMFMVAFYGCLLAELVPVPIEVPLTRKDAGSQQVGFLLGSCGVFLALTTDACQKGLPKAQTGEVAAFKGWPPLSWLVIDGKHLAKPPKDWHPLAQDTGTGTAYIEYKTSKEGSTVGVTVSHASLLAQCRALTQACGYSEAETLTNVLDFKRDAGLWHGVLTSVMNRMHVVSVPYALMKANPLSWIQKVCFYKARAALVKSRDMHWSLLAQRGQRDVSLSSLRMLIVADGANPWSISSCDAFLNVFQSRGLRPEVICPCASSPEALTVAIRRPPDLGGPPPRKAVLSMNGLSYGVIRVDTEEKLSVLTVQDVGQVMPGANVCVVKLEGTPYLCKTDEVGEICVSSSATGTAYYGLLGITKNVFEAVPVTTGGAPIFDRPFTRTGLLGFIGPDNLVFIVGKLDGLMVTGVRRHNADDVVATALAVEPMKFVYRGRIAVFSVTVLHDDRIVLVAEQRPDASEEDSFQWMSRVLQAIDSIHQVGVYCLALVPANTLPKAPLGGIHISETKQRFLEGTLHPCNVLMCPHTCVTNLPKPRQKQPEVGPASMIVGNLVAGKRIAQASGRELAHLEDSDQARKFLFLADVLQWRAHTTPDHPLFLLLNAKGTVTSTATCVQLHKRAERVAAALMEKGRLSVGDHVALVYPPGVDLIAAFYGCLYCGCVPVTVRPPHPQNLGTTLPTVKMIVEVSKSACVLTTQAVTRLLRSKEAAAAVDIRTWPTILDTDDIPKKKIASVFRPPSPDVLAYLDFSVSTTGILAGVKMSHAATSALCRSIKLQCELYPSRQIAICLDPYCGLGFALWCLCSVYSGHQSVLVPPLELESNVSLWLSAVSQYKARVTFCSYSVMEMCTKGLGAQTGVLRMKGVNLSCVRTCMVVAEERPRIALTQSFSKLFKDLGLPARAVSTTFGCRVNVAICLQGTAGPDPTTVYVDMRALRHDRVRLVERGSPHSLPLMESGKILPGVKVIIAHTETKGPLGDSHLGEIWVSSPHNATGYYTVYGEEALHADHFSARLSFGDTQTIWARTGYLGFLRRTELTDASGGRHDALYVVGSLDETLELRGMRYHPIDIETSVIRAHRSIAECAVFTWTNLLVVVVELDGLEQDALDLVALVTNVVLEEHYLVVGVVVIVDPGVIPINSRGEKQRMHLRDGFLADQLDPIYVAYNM

On to `COc1ccc2c(c1)CCCN2C(=O)CCl` [KB02], for which the Liganded result in assay [1] (HUWE1 Res# 2181, uniprot Q7Z6Z7) is recorded as “YES”; in assay [2], “YES”; in assay [3] (HERC1 Res# 56, uniprot Q15751) it was “YES”; in assay [3] (HERC1 Res# 1941, uniprot Q15751), “YES”; in assay [4] (FASTKD5 Res# 670, uniprot Q7L8L6) it was “YES”.

`O=C(CCl)Nc1cc(C(F)(F)F)cc(C(F)(F)F)c1` [KBO3]: the 100 ave in assay [1] (uniprot Q7Z6Z7) is on record as 9.7; in assay [2] (uniprot Q14689) it was 39.34; in assay [4] (uniprot Q7L8L6), 14.55. For the same compound, the 100 Max came to 9.7% in assay [1] (uniprot Q7Z6Z7, unit assumed); 39.34 in assay [2] (uniprot Q14689); 14.75 in assay [4] (uniprot Q7L8L6). Moreover, the Liganded result in assay [2] was “YES”. The “500 Max” value in assay [2] (uniprot Q14689) stood at 91.21; in assay [3] (uniprot Q15751), 68.4; in assay [4] (uniprot Q7L8L6), 57.23. Also, the 500 ave came to 91.21 in assay [2] (uniprot Q14689), 58.0 in assay [3] (uniprot Q15751) and 45.06 in assay [4] (uniprot Q7L8L6).
